# Assay results from patent US20220062278A1, “SMALL MOLECULE INHIBITORS OF THE ANDROGEN RECEPTOR ACTIVITY AND/OR EXPRESSION AND USES THEREOF” (Arizona Board of Regents on Behalf of the Univeristy of …, priority 2018, published 2022).
# Molecular target: T1, AR (Homo sapiens, UniProt P10275)
# T1 sequence (P10275 669-920 limits assumed): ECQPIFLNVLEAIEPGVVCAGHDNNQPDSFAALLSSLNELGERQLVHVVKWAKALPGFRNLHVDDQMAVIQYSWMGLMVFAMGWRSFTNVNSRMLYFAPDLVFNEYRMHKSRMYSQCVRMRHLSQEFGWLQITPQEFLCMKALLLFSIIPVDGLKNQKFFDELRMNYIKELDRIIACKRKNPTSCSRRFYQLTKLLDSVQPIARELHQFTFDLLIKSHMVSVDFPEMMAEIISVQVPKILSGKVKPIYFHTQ
# Assay: GeneBlazer assay, inhibition against AR activity
# Assay type: cell-based
# Details: 10 uM; Table II
# Source text: Tables II, III and IV show % inhibition against AR activity at 10 μm within a GeneBlazer assay, and IC50 values (nM) in GeneBlazer assay.
row,inhibition at 10 µM [%],SMILES
1,101,"CCCCn1nnnc1C(c1ccccc1)N1CCN(c2c(Cl)cncc2Cl)CC1 (centres unmarked) [Compound 4, 1-((1-butyl-1H-tetrazol-5-yl)(phenyl)methyl)-4-(3,5-dichloropyridin-4-yl)piperazine]"
2,108,"CC(C)(C)n1nnnc1C(c1ccc2ccccc2c1)N1CCN(c2c(Cl)cncc2Cl)CC1 (centres unmarked) [Compound 41, 1-((1-(tert-butyl)-1H-tetrazol-5-yl)(naphthalen-2-yl)methyl)-4-(3,5-dichloropyridin-4-yl)piperazine]"
3,108,"Oc1cccc(C(c2nnnn2C2CCCC2)N2CCN(c3c(Cl)cncc3Cl)CC2)c1 (centres unmarked) [Compound 17, 3-((1-cyclopentyl-1H-tetrazol-5-yl)(4-(3,5-dichloropyridin-4-yl)piperazin-1-yl)methyl)phenol]"

# The next lines start with the compound.
row,SMILES,inhibition at 10 µM [%]
1,"COc1ccc(C(c2nnnn2C(C)(C)C)N2CCN(c3c(Cl)cncc3Cl)CC2)cc1 (centres unmarked) [Compound 33, 1-((1-(tert-butyl)-1H-tetrazol-5-yl)(4-methoxyphenyl)methyl)-4-(3,5-dichloropyridin-4-yl)piperazine]",97.5
2,"CCCCn1nnnc1C(c1cccc(O)c1)N1CCN(c2ncccc2C(F)(F)F)CC1 (centres unmarked) [Compound 60, 3-((1-butyl-1H-tetrazol-5-yl)(4-(3-(trifluoromethyl)pyridin-2-yl)piperazin-1-yl)methyl)phenol]",105
3,"Cc1ccc(C(c2nnnn2C(C)(C)C)N2CCN(c3c(Cl)cncc3Cl)CC2)o1 (centres unmarked) [Compound 49, 1-((1-(tert-butyl)-1H-tetrazol-5-yl)(5-methylfuran-2-yl)methyl)-4-(3,5-dichloropyridin-4-yl)piperazine]",100
4,"CCCCn1nnnc1C(c1cccc(O)c1)N1CCN(c2cccc(C(F)(F)F)n2)CC1 (centres unmarked) [Compound 58, 3-((1-butyl-1H-tetrazol-5-yl)(4-(6-(trifluoromethyl)pyridin-2-yl)piperazin-1-yl)methyl)phenol]",58.4
5,"CCCCNC(=O)C(c1cccc(O)c1)N1CCN(c2c(Cl)cncc2Cl)CC1 (centres unmarked) [Compound 21, N-butyl-2-(4-(3,5-dichloropyridin-4-yl)piperazin-1-yl)-2-(3-hydroxyphenyl)acetamide]",93
